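Dose response: 5 concentrations. Exposure: 48 h. Format: 96-well plates. Endpoint: linear interpolation; highest concentration if not reached. GI50 marks 50% less growth. TGI is the concentration that stops growth completely.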
Key:
Experiment in all cases: NCI-60 cell line screen, 48 h
786-0 renal = tested on: 786-0 renal
A498 renal = tested on: A498 renal
A549 NSCLC = tested on: A549 NSCLC
ACHN renal = tested on: ACHN renal
BT-549 breast = tested on: BT-549 breast
CAKI-1 renal = tested on: CAKI-1 renal
CCRF-CEM leukemia = tested on: CCRF-CEM leukemia
COLO 205 colon = tested on: COLO 205 colon
DU-145 prostate = tested on: DU-145 prostate
EKVX NSCLC = tested on: EKVX NSCLC
HCC-2998 colon = tested on: HCC-2998 colon
HCT-15 colon = tested on: HCT-15 colon
HL-60(TB) leukemia = tested on: HL-60(TB) leukemia
HOP-62 NSCLC = tested on: HOP-62 NSCLC
HOP-92 NSCLC = tested on: HOP-92 NSCLC
HS 578T breast = tested on: HS 578T breast
HT29 colon = tested on: HT29 colon
IGROV1 ovarian = tested on: IGROV1 ovarian
K-562 leukemia = tested on: K-562 leukemia
KM12 colon = tested on: KM12 colon
LOX IMVI melanoma = tested on: LOX IMVI melanoma
M14 melanoma = tested on: M14 melanoma
MALME-3M melanoma = tested on: MALME-3M melanoma
MCF7 breast = tested on: MCF7 breast
MDA-MB-231 breast = tested on: MDA-MB-231 breast
MDA-MB-435 = tested on: MDA-MB-435
MOLT-4 leukemia = tested on: MOLT-4 leukemia
NCI-H226 lung = tested on: NCI-H226 lung
NCI-H23 lung = tested on: NCI-H23 lung
NCI-H460 lung = tested on: NCI-H460 lung
NCI-H522 lung = tested on: NCI-H522 lung
NCI/ADR-RES ovarian = tested on: NCI/ADR-RES ovarian
OVCAR-3 ovarian = tested on: OVCAR-3 ovarian
OVCAR-4 ovarian = tested on: OVCAR-4 ovarian
OVCAR-5 ovarian = tested on: OVCAR-5 ovarian
OVCAR-8 ovarian = tested on: OVCAR-8 ovarian
PC-3 prostate = tested on: PC-3 prostate
RPMI-8226 leukemia = tested on: RPMI-8226 leukemia
RXF 393 renal = tested on: RXF 393 renal
SF-268 CNS = tested on: SF-268 CNS
SF-295 CNS = tested on: SF-295 CNS
SF-539 CNS = tested on: SF-539 CNS
SK-MEL-2 melanoma = tested on: SK-MEL-2 melanoma
SK-MEL-28 melanoma = tested on: SK-MEL-28 melanoma
SK-MEL-5 melanoma = tested on: SK-MEL-5 melanoma
SK-OV-3 ovarian = tested on: SK-OV-3 ovarian
SN12C renal = tested on: SN12C renal
SNB-19 CNS = tested on: SNB-19 CNS
SNB-75 CNS = tested on: SNB-75 CNS
SR leukemia = tested on: SR leukemia
SW-620 colon = tested on: SW-620 colon
T-47D breast = tested on: T-47D breast
TK-10 renal = tested on: TK-10 renal
U251 CNS = tested on: U251 CNS
UACC-257 melanoma = tested on: UACC-257 melanoma
UACC-62 melanoma = tested on: UACC-62 melanoma
UO-31 renal = tested on: UO-31 renal

## Cc1[nH]nc2ncc(C#Cc3cncc(C(=O)Nc4ccc(CN5CCN(C)CC5)c(C(F)(F)F)c4)c3)cc12
786-0 renal
  GI50: 173 nM
  TGI: 1790 nM
A498 renal
  GI50: 218 nM
  TGI: 1240 nM
A549 NSCLC
  GI50: 453 nM
  TGI: > 100000 nM
ACHN renal
  GI50: 126 nM
BT-549 breast
  GI50: 301 nM
  TGI: 7250 nM
CAKI-1 renal
  GI50: 64.7 nM
  TGI: 994 nM
CCRF-CEM leukemia
  GI50: 293 nM
  TGI: > 27500 nM
COLO 205 colon
  GI50: 287 nM
  TGI: 1910 nM
DU-145 prostate
  GI50: 152 nM
EKVX NSCLC
  GI50: 294 nM
HCC-2998 colon
  GI50: 488 nM
HCT-15 colon
  GI50: 288 nM
  TGI: 4040 nM
HL-60(TB) leukemia
  GI50: 280 nM
  TGI: 16900 nM
HOP-62 NSCLC
  GI50: 366 nM
  TGI: 8820 nM
HOP-92 NSCLC
  GI50: 123 nM
  TGI: 808 nM
HS 578T breast
  GI50: 87.2 nM
  TGI: 929 nM
HT29 colon
  GI50: 174 nM
  TGI: 8570 nM
IGROV1 ovarian
  GI50: 58.2 nM
  TGI: 1730 nM
K-562 leukemia
  TGI: 2030 nM
KM12 colon
  GI50: < 11.6 nM
LOX IMVI melanoma
  GI50: 155 nM
  TGI: 993 nM
M14 melanoma
  GI50: 44.4 nM
  TGI: 2070 nM
MALME-3M melanoma
  GI50: 65.4 nM
  TGI: 304 nM
MCF7 breast
  GI50: 772 nM
  TGI: > 100000 nM
MDA-MB-231 breast
  GI50: 78.9 nM
  TGI: 737 nM
MDA-MB-435
  GI50: 242 nM
  TGI: 21100 nM
MOLT-4 leukemia
  GI50: 155 nM
NCI-H226 lung
  GI50: 124 nM
  TGI: 953 nM
NCI-H23 lung
  GI50: 439 nM
  TGI: > 100000 nM
NCI-H460 lung
  GI50: 147 nM
  TGI: 4640 nM
NCI-H522 lung
  GI50: 124 nM
  TGI: 4730 nM
NCI/ADR-RES ovarian
  GI50: 5770 nM
  TGI: > 25300 nM
OVCAR-3 ovarian
  GI50: 401 nM
OVCAR-4 ovarian
  GI50: 582 nM
OVCAR-5 ovarian
  GI50: 418 nM
OVCAR-8 ovarian
  GI50: 413 nM
PC-3 prostate
  GI50: 330 nM
  TGI: > 21800 nM
RPMI-8226 leukemia
  GI50: 426 nM
RXF 393 renal
  GI50: 75.2 nM
  TGI: 600 nM
SF-268 CNS
  GI50: 289 nM
SF-295 CNS
  GI50: 286 nM
SF-539 CNS
  GI50: 158 nM
  TGI: 1080 nM
SK-MEL-2 melanoma
  GI50: 85.2 nM
  TGI: 352 nM
SK-MEL-28 melanoma
  GI50: 212 nM
  TGI: 3740 nM
SK-MEL-5 melanoma
  GI50: 308 nM
  TGI: 12500 nM
SK-OV-3 ovarian
  GI50: 174 nM
  TGI: > 51800 nM
SN12C renal
  GI50: 299 nM
  TGI: 11200 nM
SNB-19 CNS
  GI50: 1030 nM
  TGI: 13200 nM
SNB-75 CNS
  GI50: 491 nM
  TGI: 13600 nM
SR leukemia
  GI50: 140 nM
SW-620 colon
  GI50: 183 nM
  TGI: 4380 nM
T-47D breast
  GI50: 508 nM
  TGI: > 61900 nM
TK-10 renal
  GI50: 441 nM
U251 CNS
  GI50: 460 nM
  TGI: 28100 nM
UACC-257 melanoma
  GI50: 317 nM
UACC-62 melanoma
  GI50: 95.9 nM
  TGI: 704 nM
UO-31 renal
  GI50: 326 nM
  TGI: 1980 nM
